Key:
Format in all cases: cell-based, human
[1] = system: breast carcinoma MDA-MB-453 cells; experiment: MTT proliferation assay, MDA-MB-453 breast carcinoma; conditions: Catalase 3000 U/ml; 10% FBS; 72 hours; mean±SE vs control
Description: (§1) Measurement of Proliferation in Cell Cultures. […] This assay empirically distinguishes between dead and living cells.
(§2) Cell Culture Treatments. The effect of antioxidant treatments on proliferation of malignant cell lines was studied in cultures stimulated with 10% FBS. Cell numbers were quantitated by the MTT assay 24-72 hours later. In some experiments, antioxidants were added immediately after cells were plated. In other experiments, cells were plated and allowed to grow for 24 hours before fresh media with antioxidants was added, and cell numbers were studied by the MTT assay 48 hours later.
(§3) Cells stimulated with 10% FBS were plated at a density of 50,000 cells per well. DMSO and antioxidants were added to cell wells at the indicated concentrations. […] Each value represents a mean of at least 4 experiments.

M1619 cells [2] = experiment: Apoptosis by TdT fluorescein end-labeling (FragEL); conditions: 3000 U/ml catalase for 24 hours; vs DNase-treated positive control
Description: Measurement of Cytotoxicity and Apoptosis. To assess for cytotoxicity, near confluent cells cultured in 24 well plates were exposed to antioxidants or withdrawn from serum for 24 hours. Medium was removed, and replaced with Dulbecco=s phosphate buffered saline (DPBS) containing 0.1% trypan blue. […] To assess for apoptosis, cells grown on glass slides were treated with antioxidants for 24 hours. Apoptosis was studied by terminal deoxynucleotidyl transferase (TdT) dependent 3′BOH fluorescein end-labeling of DNA fragments, using a Fluorescein-FragEL™ DNA fragmentation detection kit (Oncogene Research Products, Cambridge, Mass.). DNase-treated fixed cells were used as a positive control.
Apoptosis was studied by terminal deoxynucleotidyl transferase (TdT) dependent 3′BOH fluorescein end-labeling of DNA fragments, using a Fluorescein-FragE™ DNA fragmentation detection kit (Oncogene Research Products).

NF-κB = experiment: EMSA of constitutive nuclear NF-κB DNA binding, M1585; conditions: M1585 melanoma; catalase 3,000 U/ml for 24 hours
Description: The effect of antioxidants on nuclear activation of NF-κB was studied by incubating near confluent (70%) cell cultures with antioxidant treatments for 1-48 hours. Nuclear protein was harvested, and EMSAs were performed using DNA consensus binding sequences, or nuclear translocation of the p65 component of NF-κB was studied by immunoperoxidase staining, as outlined below.
Electrophoretic Mobility Shift Assays (EMSAs). Nuclear protein was isolated and DNA binding reactions were performed as previously described in detail, Kennedy et al., Am. J. Respir. Cell Mol. Biol. 19:366-378 (1998). Monolayers were washed twice in cold DPBS and equilibrated 10 min on ice with 0.7 ml cold cytoplasmic extraction buffer, CEB (10 mM Tris, pH 7.9, 60 mM KCl, 1 mM EDTA, 1 mM DTT) with protease inhibitors, PI (1 mM Pefabloc, 50 μg/ml antipain, 1 μg/ml leupeptin, 1 μg/ml pepstatin, 40 μg/ml bestatin, 3 μg/ml E-64 and 100 μg/ml chymostatin). […] DNA-protein binding reactions were performed with 2 μg of nuclear protein (as determined by the Pierce method) and 30-80,000 cpm of ^32P-end-labelled double-stranded DNA probe in 10 mM Tris-HCl, pH 7.5, 50 mM NaCl, 0.5 mM EDTA, 0.5 mM DTT, 1 mM MgCl2, 50 μg/ml poly dI-dC, and 4% glycerol. […] Gels were dried and analyzed by autoradiography at −80° C. using an image intensifier screen. […]

[3] = system: LNCaP.FGC prostate adenocarcinoma cells; experiment: MTT proliferation assay, LNCaP.FGC prostate adenocarcinoma; conditions: Catalase 3000 U/ml; 10% FBS; 48 hours; mean±SE vs control
Description: as §1, §2, §3

M1619 cells [4] = experiment: DNA cell cycle analysis by flow cytometry; conditions: 3,000 U/ml catalase, 24 hours
Description: DNA Cell Cycle Measurements. To study the effect of antioxidant treatments on the DNA cell cycle, cells were grown to near confluence in 25 cm^2 plastic flasks and treated for 24 hours. Cells were typsinized, washed twice in cold DPBS with 1 mM EDTA and 1% bovine serum albumin (BSA), fixed 30 min in ice-cold 70% ethanol, and stained by incubation for 30 min at 37° C. in a 10 μg/ml solution of propidium iodide in DPBS and 1 mg/ml RNase A. DNA cell cycle measurements were made using a FACStar^PLUS Flow Cytometer (Becton-Dickenson, San Jose, Calif.).
Near confluent monolayers of M1619 cells were incubated in RPMI 1640 and 10% FBS in the presence or absence of 3,000 U/ml catalase. After 24 hours, cells were harvested, ethanol-fixed, permeabilized with proteinase K, stained with propidium iodide and subjected to DNA cell cycle analysis. Whereas a large fraction (30.2%) of untreated cells (FIG. 6A) were tetraploid, only 12.8% of catalase-treated cells (FIG. 6B) were tetraploid. […] G2-M was hidden by tetraploid G0-G1 or by debris and could not be analyzed.

Melanoma M1585 cells = experiment: MTT proliferation assay, M1585 melanoma; conditions: Catalase 3000 U/ml; 10% FBS; 48 hours; mean±SE vs control
Description: as §1, §2, §3

Catalase
Percent Growth Inhibition [1]: 49 ± 2
Induction of apoptosis (M1619 cells [2]): did not induce apoptosis
constitutive nuclear DNA binding activity for NF-κB (NF-κB): suppressed
Percent Growth Inhibition [3]: 43 ± 7
fraction of cells tetraploid (M1619 cells [4]; untreated 30.2%): 12.8%
total percentage of cells in S-phase (M1619 cells [4]; untreated 41.2%): 56.7%
Percent Growth Inhibition (Melanoma M1585 cells): 80 ± 1

From patent US20070142462A1, “Method of Treating Cancer” (The University of Utah, priority 2000, published 2007)
